Results taken from article PMC4574779, “Selective Production of 9R-Hydroxy-10E,12Z,15Z-Octadecatrienoic Acid from α-Linolenic Acid in Perilla Seed Oil Hydrolyzate by a Lipoxygenase from Nostoc Sp. SAG 25.82” (PLoS ONE, 2015).

target: T1, 9R-LOX (9R-lipoxygenase) from Nostoc sp. SAG 25.82 (Nostoc sp. PCC 7120 = FACHB-418, UniProt Q8YK97); assay: oxygen uptake (Clark-type electrode), nonlinear Michaelis-Menten fit; format: biochemical; details: O2 co-substrate; 50 mM Tris-HCl pH 8.5; 25°C in methods (results text: 15°C, 5% acetone, 0.2% Tween 80)
T1 construct: gene all8020; 9R-lox/pET-15b, His-tagged, E. coli ER2566, His-Trap purified
T1 sequence (Q8YK97 318-773 limits assumed): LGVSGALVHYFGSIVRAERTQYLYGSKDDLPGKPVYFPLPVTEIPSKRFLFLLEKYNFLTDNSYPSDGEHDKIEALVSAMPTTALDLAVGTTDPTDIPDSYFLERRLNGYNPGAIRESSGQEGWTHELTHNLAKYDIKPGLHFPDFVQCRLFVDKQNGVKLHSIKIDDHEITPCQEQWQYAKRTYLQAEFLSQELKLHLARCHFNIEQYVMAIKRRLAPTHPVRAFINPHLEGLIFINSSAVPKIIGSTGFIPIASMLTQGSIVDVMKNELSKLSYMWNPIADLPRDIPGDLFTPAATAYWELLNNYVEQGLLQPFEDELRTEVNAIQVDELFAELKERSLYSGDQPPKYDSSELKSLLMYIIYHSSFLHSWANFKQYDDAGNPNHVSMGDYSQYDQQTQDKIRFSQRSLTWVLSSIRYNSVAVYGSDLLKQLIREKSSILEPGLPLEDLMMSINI
Excerpt: oxygen uptake (Clark-type electrode), nonlinear Michaelis-Menten fit on 9R-LOX (9R-lipoxygenase) from Nostoc sp. SAG 25.82

Km [µM]	Compound
404 ± 30	CCCCC/C=C\C/C=C\CCCCCCCC(=O)O [LA, Linoleic acid]
54 ± 0.8	CCCCC/C=C\C/C=C\C/C=C\CCCCC(=O)O [GLA, γ-Linolenic acid]
54 ± 1.3	CC/C=C\C/C=C\C/C=C\CCCCCCCC(=O)O [ALA, α-Linolenic acid]
